Experimental data as given in patent US20250195530A1, “POLQ INHIBITORS” (ASTRAZENECA AB, priority 2022, published 2025).

Tested on: DLD-1 BRCA2−/− cells
Assay: Homologous recombination synthetic lethal inhibition of proliferation, DLD-1 BRCA2-/- (Cell Titre Glo 3D)
Assay type: cell-based
Conditions: Homo sapiens, DLD-1, DLD-1 BRCA2 −/− cells; mean; read-out: POLQ PD Prolif Lumin BRCA2 −/− mean pIC50 (converted)
In short: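 Proliferation of HR-deficient DLD-1 BRCA2−/− versus isogenic wild-type DLD-1 was measured by ATP luminescence (CellTiter-Glo 3D). Compound exposure lasted 12 or 7 days, respectively, with a fresh dose on day 6. IC50 was the concentration halving maximal signal.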

Cc1noc(C)c1Cn1c(-c2ccc(CC(N)=O)cc2Cl)nc2c(OC3(C)CC3)ncnc21 [Example T27, 2-(3-chloro-4-(9-((3,5-dimethylisoxazol-4-yl)methyl)-6-(1-methylcyclopropoxy)-9H-purin-8-yl)phenyl)acetamide]
IC50: > 10000 nM

CNC(=O)COc1ccc(-c2nc3c(OC4(C)CC4)ncnc3n2Cc2ncc(C)s2)c(Cl)c1 [Example T28, 2-(3-chloro-4-(6-(1-methylcyclopropoxy)-9-((5-methylthiazol-2-yl)methyl)-9H-purin-8-yl)phenoxy)-N-methylacetamide]
IC50: 631 nM

CNS(=O)(=O)c1ccc(-c2nc3c(OC4(C)CC4)ncnc3n2Cc2cc(C)ccn2)c(Cl)c1 [Example T30, 3-chloro-N-methyl-4-(6-(1-methylcyclopropoxy)-9-((4-methylpyridin-2-yl)methyl)-9H-purin-8-yl)benzenesulfonamide]
IC50: 631 nM

Cc1cnn(C)c1Cn1c(-c2ccc(CC(N)=O)cc2Cl)nc2c(OC3(C)CC3)ncnc21 [Example T31, 2-(3-chloro-4-(9-((1,4-dimethyl-1H-pyrazol-5-yl)methyl)-6-(1-methylcyclopropoxy)-9H-purin-8-yl)phenyl)acetamide]
IC50: > 10000 nM

Cc1cc(Cn2c(-c3ccc(CC(N)=O)cc3Cl)nc3c(OC4(C)CC4)ncnc32)n(C)n1 [Example T32, 2-(3-chloro-4-(9-((1,3-dimethyl-1H-pyrazol-5-yl)methyl)-6-(1-methylcyclopropoxy)-9H-purin-8-yl)phenyl)acetamide]
IC50: 2000 nM

Cc1nn(C)cc1Cn1c(-c2ccc(CC(N)=O)cc2Cl)nc2c(OC3(C)CC3)ncnc21 [Example T33, 2-(3-chloro-4-(9-((1,3-dimethyl-1H-pyrazol-4-yl)methyl)-6-(1-methylcyclopropoxy)-9H-purin-8-yl)phenyl)acetamide]
IC50: > 10000 nM

CC1(Oc2ncnc3c2nc(-c2ccc(CC(N)=O)cc2Cl)n3Cc2ccnc(C(F)(F)F)c2)CC1 [Example T35, 2-(3-chloro-4-(6-(1-methylcyclopropoxy)-9-((2-(trifluoromethyl)pyridin-4-yl)methyl)-9H-purin-8-yl)phenyl)acetamide]
IC50: 2510 nM

CC1(Oc2ncnc3c2nc(-c2ccc(CC(N)=O)cc2Cl)n3Cc2cc(C(F)(F)F)ccn2)CC1 [Example T36, 2-(3-chloro-4-(6-(1-methylcyclopropoxy)-9-((4-(trifluoromethyl)pyridin-2-yl)methyl)-9H-purin-8-yl)phenyl)acetamide]
IC50: 501 nM

CC1(Oc2ncnc3c2nc(-c2ccc(CC(N)=O)cc2Cl)n3Cc2cccnc2C(F)(F)F)CC1 [Example T37, 2-(3-chloro-4-(6-(1-methylcyclopropoxy)-9-((2-(trifluoromethyl)pyridin-3-yl)methyl)-9H-purin-8-yl)phenyl)acetamide]
IC50: > 10000 nM

CC1(Oc2ncnc3c2nc(-c2ccc(CC(N)=O)cc2Cl)n3Cc2ccc(C(F)(F)F)nc2)CC1 [Example T38, 2-(3-chloro-4-(6-(1-methylcyclopropoxy)-9-((6-(trifluoromethyl)pyridin-3-yl)methyl)-9H-purin-8-yl)phenyl)acetamide]
IC50: 6310 nM

CC1(Oc2ncnc3c2nc(-c2ccc(CC(N)=O)cc2Cl)n3Cc2cncc(C#N)c2)CC1 [Example T39, 2-(3-chloro-4-(9-((5-cyanopyridin-3-yl)methyl)-6-(1-methylcyclopropoxy)-9H-purin-8-yl)phenyl)acetamide]
IC50: 6310 nM

CC1(Oc2ncnc3c2nc(-c2ccc(CC(N)=O)cc2Cl)n3Cc2ccnc(C#N)c2)CC1 [Example T40, 2-(3-chloro-4-(9-((2-cyanopyridin-4-yl)methyl)-6-(1-methylcyclopropoxy)-9H-purin-8-yl)phenyl)acetamide]
IC50: 5010 nM

CC1(Oc2ncnc3c2nc(-c2ccc(CC(N)=O)cc2Cl)n3Cc2cccc(F)c2)CC1 [Example T42, 2-(3-chloro-4-(9-(3-fluorobenzyl)-6-(1-methylcyclopropoxy)-9H-purin-8-yl)phenyl)acetamide]
IC50: 158 nM

CC1(Oc2ncnc3c2nc(-c2ccc(CC(N)=O)cc2Cl)n3Cc2ccc(F)cc2)CC1 [Example T43, 2-(3-chloro-4-(9-(4-fluorobenzyl)-6-(1-methylcyclopropoxy)-9H-purin-8-yl)phenyl)acetamide]
IC50: 631 nM

CC1(Oc2ncnc3c2nc(-c2ccc(OCCO)cc2Cl)n3Cc2cc(C(F)(F)F)ccn2)CC1 [Example T44, 2-(3-chloro-4-(6-(1-methylcyclopropoxy)-9-((4-(trifluoromethyl)pyridin-2-yl)methyl)-9H-purin-8-yl)phenoxy)ethan-1-ol]
IC50: 251 nM

CC1(Oc2ncnc3c2nc(-c2ccc(CC(N)=O)cc2Cl)n3Cc2cccc(Cl)c2)CC1 [Example T45, 2-(3-chloro-4-(9-(3-chlorobenzyl)-6-(1-methylcyclopropoxy)-9H-purin-8-yl)phenyl)acetamide]
IC50: 50.1 nM

CC1(Oc2ncnc3c2nc(-c2ccc(CC(N)=O)cc2Cl)n3CCc2cccc(Br)n2)CC1 [Example T46, 2-(4-(9-(2-(6-bromopyridin-2-yl)ethyl)-6-(1-methylcyclopropoxy)-9H-purin-8-yl)-3-chlorophenyl)acetamide]
IC50: > 10000 nM

Cc1ccnc(Cn2c(-c3ccc(OCC(F)F)cc3Cl)nc3c(OC4(C)CC4)ncnc32)c1 [Example T47, 8-(2-chloro-4-(2,2-difluoroethoxy)phenyl)-6-(1-methylcyclopropoxy)-9-((4-methylpyridin-2-yl)methyl)-9H-purine]
IC50: 200 nM

CC1(Oc2ncnc3c2nc(-c2ccc(CC(N)=O)cc2Cl)n3Cc2ccccc2)CC1 [Example T48, 2-(4-(9-benzyl-6-(1-methylcyclopropoxy)-9H-purin-8-yl)-3-chlorophenyl)acetamide]
IC50: 200 nM

CNC(=O)COc1ccc(-c2nc3c(OC4(C)CC4)ncnc3n2Cc2cc(Cl)ccn2)c(Cl)c1 [Example T51, 2-(3-chloro-4-(9-((4-chloropyridin-2-yl)methyl)-6-(1-methylcyclopropoxy)-9H-purin-8-yl)phenoxy)-N-methylacetamide]
IC50: 158 nM

CNC(=O)c1ccc(Cl)c(-c2nc3c(OC4(C)CC4)ncnc3n2Cc2cc(C)ccn2)c1 [Example T54, 4-chloro-N-methyl-3-(6-(1-methylcyclopropoxy)-9-((4-methylpyridin-2-yl)methyl)-9H-purin-8-yl)benzamide]
IC50: > 10000 nM

CNC(=O)c1cccc(-c2nc3c(OC4(C)CC4)ncnc3n2Cc2cc(C)ccn2)c1Cl [Example T55, 2-chloro-N-methyl-3-(6-(1-methylcyclopropoxy)-9-((4-methylpyridin-2-yl)methyl)-9H-purin-8-yl)benzamide]
IC50: 631 nM

Cc1ccnc(Cn2c(-c3cc(CC(N)=O)ccc3Cl)nc3c(OC4(C)CC4)ncnc32)c1 [Example T57, 2-(4-chloro-3-(6-(1-methylcyclopropoxy)-9-((4-methylpyridin-2-yl)methyl)-9H-purin-8-yl)phenyl)acetamide]
IC50: > 10000 nM

Cc1cc(Cn2c(-c3ccc(CC(N)=O)cc3Cl)nc3c(OC4(C)CC4)ncnc32)ccn1 [Example T58, 2-(3-chloro-4-(6-(1-methylcyclopropoxy)-9-((2-methylpyridin-4-yl)methyl)-9H-purin-8-yl)phenyl)acetamide]
IC50: > 10000 nM

Cc1cccc(Cn2c(-c3ccc(CC(N)=O)cc3Cl)nc3c(OC4(C)CC4)ncnc32)n1 [Example T59, 2-(3-chloro-4-(6-(1-methylcyclopropoxy)-9-((6-methylpyridin-2-yl)methyl)-9H-purin-8-yl)phenyl)acetamide]
IC50: 2510 nM
